Each block holds one molecule with its values, some of them ahead of it.
Legend:
[1] = thermal degradation in water and characterization of volatile products; assay type: physicochemical
Procedure: The thermal degradation of an aqueous α-branched perfluoroalkylcarbonyl fluoride and the characterization of the products produced from the degradation were carried out using the following procedure. […] 5.7 g of volatile degradation products were then collected by azeotropic distillation using a Dean-Stark apparatus.
The thermal degradation of C7 F15 CF(CF3)COF (from Example A4) dispersed in water was also carried out by heating the aqueous mixture for several hours at approximately 80° C.

[2] = surface tension of aqueous surfactant solutions and critical micelle concentration (K-12 Processor Tensiometer); assay type: physicochemical; conditions: deionized water
Text: Critical Micelle Concentration (CMC): The critical micelle concentration is defined as the concentration at which further surface tension is no longer lowered with increasing levels of surfactant. […] Surface tension is then plotted vs. log concentration and the data points are connected. The resulting curve has a nearly horizontal flat portion at concentrations above the CMC and has a negative steep slope at concentrations below the CMC. The CMC is defined as the lowest surfactant concentration in the horizontal flat portion of the curve.
(§1) Then the critical micelle concentration (CMC) was determined for each surfactant.
as §1

Molecule: O=C(F)C(F)(C(F)(F)F)C(F)(F)C(F)(F)C(F)(F)C(F)(F)C(F)(F)C(F)(F)C(F)(F)F (stereo not shown) [Example A1, C7 F15 CF(CF3)COF]
monohydride C7 F15 CFHCF3 in degradation products ([1]; deionized water, refluxed 2 hours): 85%
olefin C6 F13 CF=CFCF3 in degradation products ([1]; deionized water, refluxed 2 hours, cis/trans mixture): 15%
volatile degradation products collected ([1]; from 8 g, water, refluxed 2 hours): 5.7 g
volatile products formed ([1]; water, several hours at approximately 80° C.): The same volatile products were formed

Molecule: C[N+](C)([O-])CCCNC(=O)C(F)(C(F)(F)F)C(F)(F)C(F)(F)C(F)(F)C(F)(F)C(F)(F)C(F)(F)C(F)(F)F (stereo not shown) [Example E1, C7 F15 CF(CF3)CONH(CH2)3 N^+ (CH3)2 O^-]
CMC ([2]; Table 3): 20 ppm
Surf. Tens. at the CMC ([2]; Table 3): 16.3 dynes/cm

Molecule: C[N+](C)([O-])CCCNC(=O)C(F)(C(F)(F)F)C(F)(F)C(F)(F)C(F)(F)C(F)(F)C(F)(F)F (stereo not shown) [Example E2, C5 F11 CF(CF3)CONH(CH2)3 N^+ (CH3)2 O^-]
CMC ([2]; Table 3): 500 ppm
Surf. Tens. at the CMC ([2]; Table 3): 17.5 dynes/cm

Molecule: C[N+](C)([O-])CCCNC(=O)C(F)(C(F)(F)F)C(F)(F)C(F)(F)C(F)(F)C(F)(F)C(F)(F)C(F)(F)F (stereo not shown) [Example E3, C6 F13 CF(CF3)CONH(CH2)3 N^+ (CH3)2 O^-]
CMC ([2]; Table 3): 100 ppm
Surf. Tens. at the CMC ([2]; Table 3): 16.6 dynes/cm

Molecule: C[N+](C)([O-])CCCNC(=O)C(F)(C(F)(F)F)C(F)(F)C(F)(F)C(F)(F)C(F)(F)C(F)(F)C(F)(F)C(F)(F)C(F)(F)F (stereo not shown) [Example E4, C8 F17 CF(CF3)CONH(CH2)3 N^+ (CH3)2 O^-]
CMC ([2]; Table 3): 20 ppm
Surf. Tens. at the CMC ([2]; Table 3): 16.5 dynes/cm

Molecule: C[N+](C)([O-])CCCNC(=O)C(F)(C(F)(F)F)C(F)(F)C(F)(F)C(F)(F)C(F)(F)C(F)(F)C(F)(F)C(F)(F)C(F)(F)C(F)(F)C(F)(F)F (stereo not shown) [Example E5, C10 F21 CF(CF3)CONH(CH2)3 N^+ (CH3)2 O^-]
CMC ([2]; Table 3): 500 ppm
Surf. Tens. at the CMC ([2]; Table 3): 17.1 dynes/cm

Molecule: C[N+](C)([O-])CCCNC(=O)C(F)(C(F)(F)C(F)(F)C(F)(F)F)C(F)(F)C(F)(F)C(F)(F)C(F)(F)C(F)(F)C(F)(F)C(F)(F)F (stereo not shown) [Example E7, C7 F15 CF(C3 F7)CONH(CH2)3 N^+ (CH3)2 O^-]
solubility remark ([2]; Table 3): low solub.

Molecule: C[N+](C)([O-])CCCN(CCO)C(=O)C(F)(C(F)(F)F)C(F)(F)C(F)(F)C(F)(F)C(F)(F)C(F)(F)C(F)(F)C(F)(F)F (stereo not shown) [Example E8, C7 F15 CF(CF3)CON(C2 H4 OH)(CH2)3 N^+ (CH3)2 O^-]
Surf. Tens. at the CMC ([2]; Table 3): 16.6 dynes/cm

Molecule: O=C(NCCC[N+]1([O-])CCOCC1)C(F)(C(F)(F)F)C(F)(F)C(F)(F)C(F)(F)C(F)(F)C(F)(F)C(F)(F)C(F)(F)F (stereo not shown) [Example E9]
solubility remark ([2]; Table 3): low solub.

Molecule: O=C(NCCOC(=O)C(F)(C(F)(F)F)C(F)(F)C(F)(F)C(F)(F)C(F)(F)C(F)(F)C(F)(F)C(F)(F)F)c1cc[n+]([O-])cc1 (stereo not shown) [Example E10]
CMC ([2]; Table 3): 400 ppm
Surf. Tens. at the CMC ([2]; Table 3): 14.5 dynes/cm

Molecule: O=C(NCCOC(=O)C(F)(C(F)(F)F)C(F)(F)C(F)(F)C(F)(F)C(F)(F)C(F)(F)C(F)(F)F)c1cc[n+]([O-])cc1 (stereo not shown) [Example E11]
CMC ([2]; Table 3): 1000 ppm
Surf. Tens. at the CMC ([2]; Table 3): 15.5 dynes/cm

Molecule: O=C(OCCc1cccc[n+]1[O-])C(F)(C(F)(F)F)C(F)(F)C(F)(F)C(F)(F)C(F)(F)C(F)(F)C(F)(F)F (stereo not shown) [Example E12]
CMC ([2]; Table 3): 8000 ppm
Surf. Tens. at the CMC ([2]; Table 3): 18.3 dynes/cm

Molecule: O=C(OCCc1cccc[n+]1[O-])C(F)(C(F)(F)F)C(F)(F)C(F)(F)C(F)(F)C(F)(F)C(F)(F)C(F)(F)C(F)(F)F (stereo not shown) [Example E13]
CMC ([2]; Table 3): 6000 ppm
Surf. Tens. at the CMC ([2]; Table 3): 15.0 dynes/cm

Molecule: C[n+]1ccc(C(=O)NCCOC(=O)C(F)(C(F)(F)F)C(F)(F)C(F)(F)C(F)(F)C(F)(F)C(F)(F)C(F)(F)C(F)(F)F)cc1 (stereo not shown) [Example F1]
CMC ([2]; Table 3): 500 ppm
Surf. Tens. at the CMC ([2]; Table 3): 15.0 dynes/cm

Molecule: C[n+]1ccc(C(=O)NCCOC(=O)C(F)(C(F)(F)F)C(F)(F)C(F)(F)C(F)(F)C(F)(F)C(F)(F)C(F)(F)F)cc1 (stereo not shown) [Example F2]
CMC ([2]; Table 3): 30 ppm
Surf. Tens. at the CMC ([2]; Table 3): 15.5 dynes/cm

Molecule: C[N+](C)(CCO)CCCNC(=O)C(F)(C(F)(F)F)C(F)(F)C(F)(F)C(F)(F)C(F)(F)C(F)(F)F (stereo not shown) [Example F3]
CMC ([2]; Table 3): 1000 ppm
Surf. Tens. at the CMC ([2]; Table 3): 17.0 dynes/cm

Molecule: C[N+](C)(CCO)CCCNC(=O)C(F)(C(F)(F)F)C(F)(F)C(F)(F)C(F)(F)C(F)(F)C(F)(F)C(F)(F)C(F)(F)F (stereo not shown) [Example F4]
CMC ([2]; Table 3): 300 ppm
Surf. Tens. at the CMC ([2]; Table 3): 19.0 dynes/cm

Molecule: O=C(NCCC[N+]1(CCO)CCOCC1)C(F)(C(F)(F)F)C(F)(F)C(F)(F)C(F)(F)C(F)(F)C(F)(F)C(F)(F)C(F)(F)F (stereo not shown) [Example F5]
CMC ([2]; Table 3): 1000 ppm
Surf. Tens. at the CMC ([2]; Table 3): 20.8 dynes/cm

Molecule: CN(C)CCCN(CCCN(C)C)C(=O)C(F)(C(F)(F)F)C(F)(F)C(F)(F)C(F)(F)C(F)(F)C(F)(F)C(F)(F)C(F)(F)F (stereo not shown) [Example F9, C7 F15 CF(CF3)CON[C3 H6 N^+ (CH3)2 H]2 2[^- OOCCH3]]
CMC ([2]; Table 3): 1000 ppm
Surf. Tens. at the CMC ([2]; Table 3): 22.0 dynes/cm

Molecule: C[N+](C)(CCCNC(=O)C(F)(C(F)(F)F)C(F)(F)C(F)(F)C(F)(F)C(F)(F)C(F)(F)C(F)(F)C(F)(F)F)CCC(=O)[O-] (stereo not shown) [Example K1, C7 F15 CF(CF3)CONH(CH2)3 N^+ (CH3)2 C2 H4 COO^-]
Surf. Tens. at the CMC ([2]; Table 3): 16.6 dynes/cm

Molecule: O=C([O-])CC[N+]1(CCCNC(=O)C(F)(C(F)(F)F)C(F)(F)C(F)(F)C(F)(F)C(F)(F)C(F)(F)C(F)(F)C(F)(F)F)CCOCC1 (stereo not shown) [Example K3]
CMC ([2]; Table 3): 1000 ppm
Surf. Tens. at the CMC ([2]; Table 3): 19.2 dynes/cm

Molecule: C[N+](C)(CCCN(CCC[N+](C)(C)CCC(=O)[O-])C(=O)C(F)(C(F)(F)F)C(F)(F)C(F)(F)C(F)(F)C(F)(F)C(F)(F)C(F)(F)C(F)(F)F)CCC(=O)[O-] (stereo not shown) [Example K4]
CMC ([2]; Table 3): 100 ppm
Surf. Tens. at the CMC ([2]; Table 3): 23.6 dynes/cm

Molecule: O=C(O)C(F)(C(F)(F)F)C(F)(F)C(F)(F)C(F)(F)C(F)(F)C(F)(F)C(F)(F)C(F)(F)F (stereo not shown) [Example M1, C7 F15 CF(CF3)COOH]
degradation products in aqueous solution ([1]; aqueous solution, similar way): the same monohydride and olefin

Molecule: O=C(O)C(F)(C(F)(F)F)C(F)(F)C(F)(F)C(F)(F)C(F)(F)C(F)(F)F (stereo not shown) [Example M15, C5 F11 CF(CF3)COO^- H4 N^+]
CMC ([2]; carboxylate salts, Table 5): > 10000 ppm
Surf. Tens. at the CMC ([2]; carboxylate salts, Table 5): 22.1 dynes/cm

Molecule: O=C(O)C(F)(C(F)(F)F)C(F)(F)C(F)(F)C(F)(F)C(F)(F)C(F)(F)C(F)(F)F (stereo not shown) [Example M16, C6 F13 CF(CF3)COO^- H4 N^+]
CMC ([2]; carboxylate salts, Table 5): 8000 ppm
Surf. Tens. at the CMC ([2]; carboxylate salts, Table 5): 17.9 dynes/cm

Molecule: O=C(O)C(F)(C(F)(F)F)C(F)(F)C(F)(F)C(F)(F)C(F)(F)C(F)(F)C(F)(F)C(F)(F)C(F)(F)F (stereo not shown) [Example M17, C8 F17 CF(CF3)COO^- H4 N^+]
CMC ([2]; carboxylate salts, Table 5): 2300 ppm
Surf. Tens. at the CMC ([2]; carboxylate salts, Table 5): 14.7 dynes/cm

Molecule: O=C(O)C(F)(C(F)(F)F)C(F)(F)C(F)(F)C(F)(F)C(F)(F)C(F)(F)C(F)(F)C(F)(F)C(F)(F)C(F)(F)C(F)(F)F (stereo not shown) [Example M18, C10 F21 CF(CF3)COO^- H4 N^+]
CMC ([2]; carboxylate salts, Table 5): 600 ppm
Surf. Tens. at the CMC ([2]; carboxylate salts, Table 5): 14.8 dynes/cm

Molecule: O=C(O)C(F)(C(F)(F)F)C(F)(F)C(F)(F)C(F)(F)C(F)(F)C(F)(F)C(F)(F)C(F)(F)F (stereo not shown) [Example M20, C7 F15 CF(CF3)COO^- H3 N^+ C2 H4 OH]
CMC ([2]; carboxylate salts, Table 5): 500 ppm
Surf. Tens. at the CMC ([2]; carboxylate salts, Table 5): 15.0 dynes/cm

Molecule: O=C(O)C(F)(C(F)(F)F)C(F)(F)C(F)(F)C(F)(F)C(F)(F)C(F)(F)F (stereo not shown) [Example M21, C5 F11 CF(CF3)COO^- K^+]
CMC ([2]; carboxylate salts, Table 5): > 10000 ppm
Surf. Tens. at the CMC ([2]; carboxylate salts, Table 5): 22.5 dynes/cm

Molecule: O=C(O)C(F)(C(F)(F)F)C(F)(F)C(F)(F)C(F)(F)C(F)(F)C(F)(F)C(F)(F)F (stereo not shown) [Example M22, C6 F13 CF(CF3)COO^- K^+]
CMC ([2]; carboxylate salts, Table 5): 10000 ppm
Surf. Tens. at the CMC ([2]; carboxylate salts, Table 5): 17.5 dynes/cm

Molecule: O=C(O)C(F)(C(F)(F)F)C(F)(F)C(F)(F)C(F)(F)C(F)(F)C(F)(F)C(F)(F)C(F)(F)F (stereo not shown) [Example M23, C7 F15 CF(CF3)COO^- K^+]
CMC ([2]; carboxylate salts, Table 5): 2500 ppm
Surf. Tens. at the CMC ([2]; carboxylate salts, Table 5): 15.0 dynes/cm

Molecule: O=C(O)C(F)(C(F)(F)F)C(F)(F)C(F)(F)C(F)(F)C(F)(F)C(F)(F)C(F)(F)C(F)(F)C(F)(F)F (stereo not shown) [Example M24, C8 F17 CF(CF3)COO^- K^+]
CMC ([2]; carboxylate salts, Table 5): 3000 ppm
Surf. Tens. at the CMC ([2]; carboxylate salts, Table 5): 16.4 dynes/cm

Molecule: O=C(O)C(F)(C(F)(F)F)C(F)(F)C(F)(F)C(F)(F)C(F)(F)C(F)(F)C(F)(F)F (stereo not shown) [Example M25, C6 F13 CF(CF3)COO^- Na^+]
CMC ([2]; carboxylate salts, Table 5): 10000 ppm
Surf. Tens. at the CMC ([2]; carboxylate salts, Table 5): 19.8 dynes/cm

Molecule: O=C(O)C(F)(C(F)(F)F)C(F)(F)C(F)(F)C(F)(F)C(F)(F)C(F)(F)C(F)(F)C(F)(F)F (stereo not shown) [Example M26, C7 F15 CF(CF3)COO^- Na^+]
CMC ([2]; carboxylate salts, Table 5): 3000 ppm
Surf. Tens. at the CMC ([2]; carboxylate salts, Table 5): 19.4 dynes/cm

Molecule: O=C(O)C(F)(C(F)(F)F)C(F)(F)C(F)(F)C(F)(F)C(F)(F)C(F)(F)C(F)(F)C(F)(F)F (stereo not shown) [Example M27, C7 F15 CF(CF3)COO^- Li^+]
CMC ([2]; carboxylate salts, Table 5): 3500 ppm
Surf. Tens. at the CMC ([2]; carboxylate salts, Table 5): 24.1 dynes/cm

Molecule: O=C(O)C(F)(C(F)(F)F)C(F)(F)C(F)(F)C(F)(F)C(F)(F)C(F)(F)C(F)(F)C(F)(F)F (stereo not shown) [Example M30, C7 F15 CF(CF3)COO^- 1/2 [H3 N^+ C2 H4 NHC2 H4 N^+ H3]]
CMC ([2]; carboxylate salts, Table 5): 3000 ppm
Surf. Tens. at the CMC ([2]; carboxylate salts, Table 5): 16.2 dynes/cm

CMC ([2]; Table 3): 500 ppm
Surf. Tens. at the CMC ([2]; Table 3): 20.3 dynes/cm
Molecule: C6 F13 CF(CF3)CON(C3 H6 SO3^-)(CH2)3 N^+ (CH3)2 H [Example K2]

CMC ([2]; Table 3): 150 ppm
Surf. Tens. at the CMC ([2]; Table 3): 22 dynes/cm
Molecule: C8 F17 CF(CF3)CO(OCH2 CH2)16 OCH3 [Example J1]

Reference: patent publication US6013795A, “Alpha-branched fluoroalkylcarbonyl fluorides and their derivatives” (3M Innovative Properties Company, priority 1996, dated 2000)
